# Assay results published in US9981964B2 (Agency for Science, Technology and Research, priority 2013, dated 2018).
# Entries after “also recorded” stand apart in the source; their conditions may differ. Like-named read-outs stand apart in the source and are kept apart here.
# Tests used:
# AsPC-1 cells = test: Soft agar colony formation assay, AsPC-1; format: cell-based; conditions: for IC50: Homo sapiens
# Description: (§1) AsPC-1 cells were maintained in RPMI164 supplemented with 10% FBS, 2 mM L-glutamine and P/S (100 units/ml penicillin and 100 μg/ml streptomycin). HPAF-II cells were maintained in MEM (Eagles') supplemented with 10% FBS, 2 mM L-glutamine and P/S (100 units/ml penicillin and 100 μg/ml streptomycin). CFPAC-1 cells were maintained in Iscove MEM supplemented with 10% FBS, 2 mM L-glutamine and P/S (100 units/ml penicillin and 100 μg/ml streptomycin).
# (§2) 600 μl of 0.6% agar was added to 24-well plate to form the base layer. Then a middle layer of 0.36% agar (containing 5000 cells and serially diluted compound) was added on to the base layer. Finally 500 μl of fresh growth medium was added to the top of the middle layer. The plates were incubated at 37° C. with 5% carbon dioxide in a humidified incubator for 2 weeks. Formation of colonies was observed using a light microscope. When the colony size was larger than 500 μm, 70 μl MTT (5 mg/ml) was added to each well and the plates were incubated at 37° C. for at least 2 hours. Colonies were counted with GelCount® instrument. The colony counts were plotted against compound concentrations using the GraphPad Prism software. The software was also used to perform non-linear curve fitting and calculation of compound concentration that inhibited 50% colony formation.
# mammalian PORCN = test: PORCN-null HT1080 cells transfected with mammalian PORCN, WNT3A and STF reporter, luciferase; format: cell-based; conditions: STF luciferase, FIG. 1
# Description: PORCN-null HT1080 cells were transfected with mammalian or Xenopus PORCN expression plasmids, along with WNT3A, STF reporter and mCherry as transfection control. 6 hours after transfection, cells were treated with the compounds or DMSO as indicated, and the following day assayed for luciferase. Xenopus PORCN was resistant to the inhibitory effects of compounds.
# MMTV-Wnt1 tumor = format: in vivo, BALBc mice; conditions: for % T/C / % TGI / NTRD / T/C / TRD: Day 14
# Description: 8-10 weeks old Female BALBc mice were anesthetised with 150 mg/kg Ketamine +75 mg/kg Xylazine. Under aseptic conditions, skin near the 4th mammary fat pad was incised, Mammary fat pad was tweaked with forceps and tumor fragment ˜2 mm^3 was implanted. The incision was closed using a tissue adhesive. Animals were randomised into groups of eight and treated daily with the test compounds for 14 days. Tumors were measured in two dimensions using calipers, and volume was calculated using the formula: Tumor Volume (mm^3)=[…]. Maximum tumor volume limit was 2000 mm^3.
# HEK293-STF3A cells = test: STF3A assay (STF luciferase reporter in Wnt3A-expressing HEK293 cells); format: cell-based; conditions: Homo sapiens, 24 h, 1 day of treatment
# Summary of the method: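 HEK293 cells carrying the STF reporter and expressing Wnt3A, seeded 2×10^4 per well overnight, then treated 1 day with compound at final 50 μM to 1.5 nM. Luciferase activity read by luminescence after Steady-Glo reagent, 10 min at room temperature.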
# Palmitoylation of Wnt3a = test: Wnt3A palmitoylation assay (HeLa cells over-expressing V5-Wnt3a, alkyne palmitate, click chemistry); format: cell-based; conditions: 100 nM compound
# Description: The assay used to determine the inhibition of the palmitoylation of Wnts by compound was described by Yap et al, (Yap M C, Kostiuk M A, Martin D D, Perinpanayagam M A, Hak P G, Siddam A, Majjigapu J R, Rajaiah G, Keller B O, Prescher J A, Wu P, Bertozzi C R, Falck J R, Berthiaume L G. 2010. Rapid and selective detection of fatty acylated proteins using omega-alkynyl-fatty acids and click chemistry. J Lipid Res. 51(6):1566-1580) with some modification. 3×10^6 HeLa cells were seeded in 10 cm culture dish and incubated at 37° C. overnight. […] After six hours, the cells were washed with PBS and treated with 100 μM alkyne palmitate in medium with 5% BSA. 100 nM compound or DMSO was added and the cells were incubated overnight at 37° C. The cells were lyzed and 600 μg cell lysate was collected and incubated with anti-V5 antibody (Invitrogen) followed by the pull down of V5-Wnt3a with the addition of Protein A/G agarose beads (Thermo scientific). The pulled down lysates containing V5-Wnt3a was click-reacted with biotin-azide (Invitrogen). The biotin-labelled protein lysate was then separated on SDS-PAGE and transferred to a nitrocellulose membrane. The membrane was incubated with primary anti-V5 antibody, followed by secondary anti-mouse Dylight 680 (Thermo scientific) to detect V5-Wnt3a. […]
# HPAF-II cells = test: Soft agar colony formation assay, HPAF-II; format: cell-based; conditions: for IC50: Homo sapiens
# Description: as §1, §2
# CFPAC-1 cells = test: Soft agar colony formation assay, CFPAC-1; format: cell-based; conditions: for IC50: Homo sapiens
# Description: as §1, §2
smiles,measurement,setting,value
"O=C(CN1CCCC2=C1C(=O)N(C1CC1)C2=O)Nc1ccc(-c2cccnc2)nn1 [Compound 43, 2-(6-cyclopropyl-5,7-dioxo-2,3,4,5,6,7-hexahydro-1H-pyrrolo[3,4-b]pyridin-1-yl)-N-(6-(pyridin-3-yl)pyridazin-3-yl)acetamide]",Maximum inhibition,"AsPC-1 cells; AsPC-1, colony formation",79%
same,IC50,"AsPC-1 cells; ASPC1, 336 h, AsPC-1, 50% colony growth inhibition, 2 weeks, read-out: Test 1 IC50",4 nM
same,IC50,"AsPC-1 cells; ASPC1, 336 h, AsPC-1, 50% colony growth inhibition, 2 weeks, read-out: Test 2 IC50",5 nM
same,IC50,"AsPC-1 cells; ASPC1, AsPC-1, mean of two independent experiments, read-out: Mean IC50",5 nM
same,inhibition of the activity of mammalian porcupine,mammalian PORCN,inhibit the activity of mammalian porcupine; also recorded: inhibition of the activity of mammalian porcupine
same,% T/C,MMTV-Wnt1 tumor; 1 mg/Kg daily,77.5%
same,% TGI,MMTV-Wnt1 tumor; 1 mg/Kg daily,24%
same,NTRD,MMTV-Wnt1 tumor; 1 mg/Kg daily,0/8
same,T/C,MMTV-Wnt1 tumor; 1 mg/Kg daily,0.775
same,TRD,MMTV-Wnt1 tumor; 1 mg/Kg daily,0/8
same,% T/C,MMTV-Wnt1 tumor; 3 mg/Kg daily,33.7%
same,% TGI,MMTV-Wnt1 tumor; 3 mg/Kg daily,72%
same,NTRD,MMTV-Wnt1 tumor; 3 mg/Kg daily,0/8
same,T/C,MMTV-Wnt1 tumor; 3 mg/Kg daily,0.337
same,TRD,MMTV-Wnt1 tumor; 3 mg/Kg daily,0/8
same,% T/C,MMTV-Wnt1 tumor; 10 mg/Kg daily,18.5%
same,% TGI,MMTV-Wnt1 tumor; 10 mg/Kg daily,97%
same,NTRD,MMTV-Wnt1 tumor; 10 mg/Kg daily,0/8
same,T/C,MMTV-Wnt1 tumor; 10 mg/Kg daily,0.185
same,TRD,MMTV-Wnt1 tumor; 10 mg/Kg daily,0/8
same,tumor growth in treated mice,"MMTV-Wnt1 tumor; daily treatment for 14 days, FIG. 2 and FIG. 3",decreased tumor growth in all the treated mice
same,IC50,HEK293-STF3A cells,< 100 nM
same,inhibition of palmitoylation of Wnt3a,Palmitoylation of Wnt3a,inhibited; also recorded: inhibition of Palmitoylation of Wnt3a
same,IC50,"HPAF-II cells; 336 h, 50% colony growth inhibition, 2 weeks, read-out: Test 1 IC50",4 nM
same,IC50,"HPAF-II cells; 336 h, 50% colony growth inhibition, 2 weeks, read-out: Test 2 IC50",2 nM
same,IC50,"HPAF-II cells; mean of two independent experiments, read-out: Mean IC50",3 nM
same,Maximum inhibition,HPAF-II cells; colony formation,100%
same,Maximum inhibition,"CFPAC-1 cells; CFPAC-1, colony formation",67%
same,IC50,"CFPAC-1 cells; 336 h, CFPAC-1, 50% colony growth inhibition, 2 weeks, read-out: Test 1 IC50",300 nM
same,IC50,"CFPAC-1 cells; 336 h, CFPAC-1, 50% colony growth inhibition, 2 weeks, read-out: Test 2 IC50",140 nM
same,IC50,"CFPAC-1 cells; CFPAC-1, mean of two independent experiments, read-out: Mean IC50",220 nM
